Assays:
SPL = biological target: T1, SPL (Mus musculus, UniProt Q8R0X7); assay: SPL activity in thymic tissue after FTY720 administration in vivo; design: species or system FVB mice; conditions: for SPL enzyme inhibition in tissue homogenates: animals treated with FTY720 for 24 hours
T1 construct: from tissue; host or cells: thymus of FVB mice
T1 sequence (Q8R0X7 1-568): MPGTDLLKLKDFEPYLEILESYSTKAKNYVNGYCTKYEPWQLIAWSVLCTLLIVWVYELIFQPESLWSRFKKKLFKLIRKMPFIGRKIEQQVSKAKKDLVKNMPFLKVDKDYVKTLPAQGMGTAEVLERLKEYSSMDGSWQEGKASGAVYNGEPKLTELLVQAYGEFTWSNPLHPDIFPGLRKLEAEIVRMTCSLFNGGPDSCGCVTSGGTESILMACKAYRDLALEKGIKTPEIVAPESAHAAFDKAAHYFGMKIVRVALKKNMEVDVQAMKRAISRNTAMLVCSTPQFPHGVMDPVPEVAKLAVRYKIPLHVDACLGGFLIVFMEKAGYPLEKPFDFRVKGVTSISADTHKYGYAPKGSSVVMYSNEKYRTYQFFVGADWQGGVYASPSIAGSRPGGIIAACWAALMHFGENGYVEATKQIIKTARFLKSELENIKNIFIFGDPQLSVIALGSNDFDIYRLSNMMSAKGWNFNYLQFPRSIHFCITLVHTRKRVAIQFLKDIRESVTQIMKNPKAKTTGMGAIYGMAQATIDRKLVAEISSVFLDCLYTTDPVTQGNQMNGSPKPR
Procedure: One mg/kg FTY720 was administered by peritoneal injection to FVB mice at time zero. Mice were euthanized at the indicated times, and SPL activity in thymic tissue was determined.
(§1) Drug treatments and leukocyte/lymphocyte counts: Four-week old FVB or C3H mice were obtained from Charles River Laboratories (Wilmington, Mass.). Animals were maintained in a pathogen-free facility in microisolator cages. Mice were anaesthetized with isoflurane inhalation, and a single dose of FTY720 (at 1 or 3 mg/kg) or GT11 (at 1, 10 or 100 mg/kg) in sterile water was injected intraperitoneally at time zero. Blood counts were determined by Coulter counter (Coulter Instruments, Hialeah, Fla.) and by manual differential counting. Mice were euthanized by CO2 inhalation at various time points post-injection, followed by tissue harvest. All animal studies were performed in accordance with approved CHORI IACUC protocols.
SPL enzyme assay: Tissues were homogenized by sonication in 9 volumes of ice-cold homogenization buffer (5 mM MOPS pH 7.5, 1 mM DTT, 1 mM EDTA, 0.25 M sucrose, and 5 micrograms/ml each chymostatin, leupeptin, pepstatin A and antipain). SPL assays were conducted using 50 micrograms protein per assay and radioactive [4,5 ^3H]DHS1P substrate, as described previously (Reiss et al., (2004) J Biol Chem 279, 1281-1290). For in vitro FTY720 and FTY720-P experiments, drug was incubated with whole cell extracts prepared from HEK293 cells infected with an adenoviral vector expressing human SPL. These extracts contained approximately 200 picomoles/mg protein/minute SPL activity. Drug was incubated with extracts for 30 minutes, followed by addition of extracts to reaction buffer and substrate to initiate the reaction.
Inhibition of SPL by FTY720 in vivo—The effect on SPL enzyme activity of FTY720 administration was tested. Four-week old female FVB mice were given 1 mg/kg FTY720 by intraperitoneal injection, and tissue SPL activity in thymus was assessed over time. […] SPL inhibition occurred concomitantly with lymphopenia, and was consistent with the timing of lymphopenia reported previously (Chiba et al., (1998) J Immunol 160, 5037-5044) (Table 1).
To address whether the inhibition of SPL activity in homogenates of tissues isolated from FTY720 treated animals was reversible, tissue SPL activity was measured in the presence of increasing amounts of non-radiolabeled DHS1P substrate.

[1] = single dose administration; cited from earlier work
S1P = S1P measurements in murine tissue after FTY720 treatment; format: in vivo
Procedure: as §1
S1P measurements: S1P was isolated by two-phase lipid extraction, derivatized with OPA and quantitated by HPLC essentially as described (Jiang et al, (2004) Proc Natl Acad Sci USA 101, 17825-17830; Fyrst et al., (2004) J Lipid Res 45, 54-62; Caligan et al., (2000) Anal. Biochem. 281, 36-44). All tissues were weighed prior to snap freezing in liquid nitrogen and were stored at −100° C. until processing. One nanomole of C17-S1P and PSo were added as internal standards before homogenization of tissues. Lipids were extracted with 1 ml mixture of chloroform and methanol (1:2 ratio). Samples were incubated at room temperature with sonication for 3 hours and then dried by speed vac. One ml of 0.1N NaOH in methanol was added for 1 hour at 37° C. to achieve hydrolysis. After addition of 4 ml chloroform and 4 ml 1M KCl, samples were mixed and phases separated by centrifugation. The organic phase was collected and dried for sphingosine determination. The aqueous phase was mixed with 300 μl concentrated HCl and 6 ml chloroform. The phases were separated by centrifugation, and the organic phase was collected and dried for S1P determination. All samples for S1P determination were re-dissolved in methanol. After derivation with OPA, samples were injected onto HPLC for quantification. The mobile phase was methanol:10 mM phosphate buffer (pH 7.2):1M tetrabutylammonium dihydrogen phosphate (TBAP) in water=83:16:1, v/v/v and the flow rate was 1 ml/min.
FTY720 administration minimally affects tissue SIP levels—SK is known to be responsible for S1P synthesis, whereas SPL and S1P phosphatases are responsible for S1P catabolism. Since FTY720 interacts with both SK and SPL and may potentially influence the efficiency of both S1P synthesis and degradation, the sum effect of FTY270 administration on tissue S1P levels was determined. FTY720 treatment was associated with a slight increase in thymic tissue S1P at 36 hours, followed by a return to baseline levels by 48 hours (Table 2). […] S1P levels increased somewhat more dramatically in splenic tissue after FTY720 treatment (Table 2). […] According to non-limiting theory, simultaneous inhibition of SPL may account for the stability of tissue S1P levels in response to drug treatment.

[2] = 1 mg/kg FTY720 intraperitoneal, FVB mice, thymus

CCCCCCCCc1ccc(CCC(N)(CO)CO)cc1 [FTY720]
earliest time at which inhibition of SPL was noted (SPL; [2]): 12 h
time by which SPL inhibition began to reverse (SPL; [2]): ≤ 48 h
SPL enzyme inhibition in tissue homogenates (SPL; 10 nmol substrate (standard assay conditions)): 21%
SPL enzyme inhibition in tissue homogenates (SPL; 40 nmol unlabeled substrate): 25%
SPL enzyme inhibition in tissue homogenates (SPL; 2-fold increase in unlabeled DHS1P substrate): 14%
inhibition at 1 mg/kg (SPL; mouse, ip, 1 mg/kg FTY720 intraperitoneal, FVB mice, thymus, at 36 hours, read-out: peak inhibition of SPL activity): ~40%
elimination half-life [1]: long
S1P (spleen) (S1P; 24 hours after FTY720): 15121.31 picomoles per gram of wet weight tissue
S1P (spleen) (S1P; 36 hours after FTY720): 18482.30 picomoles per gram of wet weight tissue
S1P (spleen) (S1P; 48 hours after FTY720): 12365.84 picomoles per gram of wet weight tissue
Dihydrosphingosine-1-P (DHS1P) tissue levels (S1P; throughout 48 hours of treatment): remained stable
S1P (thymus) (S1P; 24 hours after FTY720): 3000.69 picomoles per gram of wet weight tissue
S1P (thymus) (S1P; 36 hours after FTY720): 3917.48 picomoles per gram of wet weight tissue
S1P (thymus) (S1P; 48 hours after FTY720): 3194.45 picomoles per gram of wet weight tissue

Reference: patent publication US8124111B2, “Immunomodulation by altering sphingosine 1-phosphate lyase (SPL) activity” (Children's Hospital & Research Center at Oakland, priority 2005, dated 2012)
